{
  "source": "patent US20070218086A1",
  "about": "“Adjuvant Composition and Methods for Its Use” (priority 2004, published 2007)",
  "key": {"[1]": {"system": "primary polyclonal human Vγ9/Vδ2 T cells", "test": "TNFα release assay (cytokine release assay)", "format": "cell-based", "settings": "T-cell, 24 h, read-out: in vitro EC50", "description": "Cells (primary polyclonal human Vγ9/Vδ2 T cells which had been expanded in vitro and stored frozen at day 12-15 of expansion) are thawed and rinsed them twice and centrifuged. Upon elimination of supernatant and resuspension of cells, cells are incubated for 24h at 37° C. in the presence of IL2 100 UI/ml (fmal concentration). Cells are washed and centrifuged, following which the supernatant is eliminated and the cells are resuspended and adjusted to the adequate final concentration. Cells are added to the wells of a 96-well plate.\nTo one row of wells are added a standard diluation series of 3-(bromomethyl)-3-butanol-1-yl-diphosphate (BrHPP). Compounds to be tested, in this case CHDMAPP and HDMAPP are added to experimental wells, after several dilutions.\nFull plates are incubated 24 hours at 37° C. for stimulation of the γδ cells with the BrHPP standard as well as isopentenyl pyrophosphate (IPP) for comparison, and test compounds CHDMAPP and HDMAPP. After this time, 100 μl of culture supernatant is taken for TNFα dosage. Measurement of the released TNFa dosageis performed as described by the manufacturer's instruction in the TNFa enzyme immunoassay kit (ref. 11121, Immunotech-Beckman Coulter). OD at 405 nm is read, the OD being proportional to the concentration of released TNFα in the culture supernatant. The data are processed with the Excel software to compare concentration of test compound versus concentration of TNFα and for the calculation of the EC50 for each test compound."}, "[2]": {"system": "IFNγ, TNF-alpha, IL2, IL4, IL5 and IL6", "format": "in vivo, monkeys"}, "Vγ9/Vδ2+ T cell": {"system": "Vγ9/Vδ2+ T cell", "test": "in vitro Vγ9/Vδ2+ T cell stimulation", "format": "cell-based"}, "γδ T cells": {"system": "γδ T cells", "test": "in vivo Vγ9/Vδ2+ T cell stimulation in cynomolgus monkeys"}},
  "data": [
    {"smiles": "CC(O)(CBr)CCOP(=O)(O)OP(=O)(O)O", "note": "(stereo not drawn) [BrHPP, 3-(bromomethyl)-3-butanol-1-yl-diphosphate, reference compound]", "values": [
      {"measurement": "EC50", "setting": "[1]", "result": "~18.6", "unit": "nM"}
    ]},
    {"smiles": "C=C(C)CCO[P@@](=O)(O)OP(=O)(O)O", "note": "[IPP, isopentenyl pyrophosphate, reference compound]", "values": [
      {"measurement": "EC50", "setting": "[1]", "result": "~31000", "unit": "nM"}
    ]},
    {"smiles": "C/C(=C\\CCP(=O)(O)OP(=O)(O)O)CO", "note": "[CHDMAPP, (E)-5-hydroxy-4-methylpent-3-enyl pyrophosphonate]", "values": [
      {"measurement": "cytokine production (IFNγ) over that observed with the phosphoantigen alone", "setting": "[2]; cytokines known to be induced by phosphoantigen alone (IFNγ)", "result": "large increase of cytokine production"},
      {"measurement": "cytokine production over that observed with the Hybrid-I formulation alone", "setting": "[2]; serum cytokines, 8 monkeys per group, FIG. 3", "result": "large and statistically significant increase in cytokine production"},
      {"measurement": "EC50", "setting": "[1]", "result": "~0.873", "unit": "nM"}
    ]},
    {"smiles": "C/C(=C\\COP(=O)(O)OP(=O)(O)O)CO", "note": "[HDMAPP, (E)-4-Hydroxy-3-methylbut-2-enyl diphosphate]", "values": [
      {"measurement": "EC50", "setting": "Vγ9/Vδ2+ T cell", "result": "~0.6", "unit": "nM"},
      {"measurement": "EC50", "setting": "γδ T cells; Macaca fascicularis, T-cell, in cynomolgus monkeys, dosage studies described in co-pending PCT/IB2003/006375", "result": "~0.005", "unit": "nM"},
      {"measurement": "activation of γδ T cells", "setting": "γδ T cells; administration to cynomolgus monkeys, very low doses", "result": "strong activation of γδ T cells"},
      {"measurement": "EC50", "setting": "[1]", "result": "~0.758", "unit": "nM"}
    ]}
  ]
}
